What was measured:
NCI-H358 xenograft = assay: NSCLC H358 xenograft model, tumor volume; type: in vivo, BALB/c nude mice; settings: for reduction of tumor volume, combined treatment vs either agent alone: FIG. 5
Experimental: (§1) All the procedures related to animal handling, care and the treatment in this study were performed according to the guidelines approved by the Institutional Animal Care and Use Committee (IACUC) of SIPPER B&K following the guidance of the Association for Assessment and Accreditation of Laboratory Animal Care (AAALAC). At the time of routine monitoring, the animals were checked for any effects of tumor growth on normal behavior such as mobility, food and water consumption (by looking only), body weight gain/loss (body weights were measured twice weekly), eye/hair matting and any other abnormal effect. Death and observed clinical signs were recorded on the basis of the numbers of animals within each subset.
(§2) The NCI-H358, SW837, NCI-H2122 tumor cells were purchased from the American Type Culture Collection (ATCC). Cells were maintained in vitro as monolayer cultured in RPMI-1640 or DMEM medium supplemented with 10% fetal bovine serum, 50 IU/ml penicillin/streptomycin (GIBCO) at 37° C. in an atmosphere of 5% CO2 in air. The tumor cells were routinely sub cultured twice weekly by trypsin-EDTA treatment. The cells growing in an exponential growth phase were harvested and counted for tumor inoculation.
For tumor bearing models, female 6- to 8-week-old athymic BALB/c nude mice were used for human cancer cell lines. Each mouse was inoculated subcutaneously at the right flank with tumor cells (10×10^6) in 0.1 ml of PBS. The treatments were started when the average tumor size reached approximately 200-250 mm^3. Carboplatin, Cisplatin was injected twice a week by i.p. Vehicles and other test articles were given orally as a suspension by gavage once daily during the study or treatment period.
(§3) Tumor volume was calculated by measuring two perpendicular diameters using the following formula: (L×W 2)/2 in which L and W refer to the length and width tumor diameter, respectively. Results are expressed as mean and standard deviation of the mean.

pooled human hepatocytes = assay: Human hepatocyte clearance study; type: in vitro ADME
Experimental: (§4) The in vitro human hepatocyte clearance of compounds described here was studied using pooled human hepatocytes purchased from BioreclamationIVT (Westbury, NY, Cat #X008001, Lot #TQJ). The assay was conducted according to manufacturer's instruction. Briefly, 10 mM stock solutions of test compounds and positive control (Verapamil) were prepared in 100% DMSO. Thawing media (50 mL) used in the study consists of 31 mL Williams E medium (GIBCO Cat #12551-032), 15 mL isotonic percoll (GE Healthcare Cat #17-0891-09), 500 uL 100× GlutaMax (GIBCO Cat #35050), 750 uL HEPES (GIBCO Cat #15630-080), 2.5 mL FBS (Corning Cat #35-076-CVR), 50 uL human insulin (GIBCO Cat #12585-014) and 5 uL dexamethasone (NICPBP). Incubation media is made of Williams E medium supplemented with 1× GlutaMax. Both thawing medium and incubation medium (serum-free) were placed in a 37° C. water bath for at least 15 minutes prior to use. Compound stock solutions were diluted to 100 μM by combining 198 μL of 50% acetonitrile/50% water and 2 μL of 10 mM stock solution. Verapamil was use as positive control in the assay. Vials of cryopreserved hepatocytes were removed from storage and thawed in a 37° C. water bath with gentle shaking. Contents of the vial were poured into the 50 mL thawing medium conical tube. Vials were centrifuged at 100 g for 10 minutes at room temperature. […] […] […] The boiled hepatocytes were used to prepare negative samples. Aliquots of 198 μL hepatocytes were dispensed into each well of a 96-well non-coated plate. The plate was placed in the incubator on an orbital shaker at 500 rpm for approximately 10 minutes. Aliquots of 2 μL of the 100 μM test compound or positive control were added into respective wells of the non-coated 96-well plate to start the reaction. This assay was performed in duplicate. The plate was incubated in the incubator on an orbital shaker at 500 rpm for the designated time points. Twenty-five microliter of contents were transferred and mixed with 6 volumes (150 μL) of cold acetonitrile with IS (200 nM imipramine, 200 nM labetalol and 200 nM diclofenac) to terminate the reaction at time points of 0, 15, 30, 60, 90 and 120 minutes. Samples were centrifuged at 3,220 g for 25 minutes and aliquots of 150 μL of the supernatants were used for LC-MS/MS analysis. For data analysis, all calculations were carried out using Microsoft Excel. Peak areas were determined from extracted ion chromatograms. The in vitro half-life (t1/2) of parent compound was determined by regression analysis of the percent parent disappearance vs. time curve. […] Scaling factors for in vivo intrinsic clearance prediction using human hepatocytes are listed as: liver weight (g liver/kg body weight): 25.7; hepatocyte concentration (10^6 cells/g liver): 99; scaling factor: 2544.3.

[1] = Human hepatocyte clearance study; type: in vitro ADME; settings: human, pooled cryopreserved human hepatocytes (suspension), working cell density 2 × 10^6 viable cells/mL
Experimental: as §4

NCI-H2122 xenograft = assay: NSCLC H2122 xenograft model, tumor volume; type: in vivo, BALB/c nude mice; settings: 60 mg/kg oral once daily vs AMG510 at 60 mg/kg; FIG. 3
Experimental: as §1
as §2, with “The tumor cells were routinely sub cultured twice weekly by trypsin-EDTA treatment.” left out, “inoculation. […]” for “inoculation.”
as §3

Structure (SMILES): C=CC(=O)N1C[C@H](C)N(c2nc(=O)n(-c3c(C4CC4)ncnc3C3CC3)c3nc(-c4c(N)cccc4F)c(Cl)cc23)C[C@H]1C [Compound 126]
- reducing tumor volume compared with AMG510 (NCI-H358 xenograft; 30 mg/kg oral once daily vs AMG510 at 30 mg/kg, FIG. 2): more effective than AMG510
- reduction of tumor volume, combined treatment vs either agent alone (NCI-H358 xenograft; Compound 126 at 5 mg/kg combined with RMC-4550 at 10 mg/kg): much better reduction of tumor volume
- reduction of tumor volume, combined treatment vs either agent alone (NCI-H358 xenograft; Compound 126 at 5 mg/kg combined with cisplatin at 2 mg/kg): much better reduction of tumor volume
- human hepatocyte clearance profile compared to control compounds (pooled human hepatocytes): better human hepatocyte clearance profile
- Human Hepatocyte Remaining Percentage @ 120 min (%) (pooled human hepatocytes; working cell density 2 × 10^6 viable cells/mL): 47.8%
- hepatocyte CLint at 1 µM ([1]; read-out: Human In vitro Clint (μl/min/10^6 cells)): 6.6 µL/min/1e6 cells
- half-life at 1 µM ([1]; read-out: Human In vitro T1/2): 104 min
- CLint scaled at 1 µM ([1]; read-out: Human Scale-up Clint): 17 mL/min/kg
- reducing tumor volume compared with AMG510 (NCI-H2122 xenograft): more effective than AMG510

Source: patent US12110289B2, “Heterocyclic compounds, preparation methods and uses thereof” (InventisBio Co., Ltd., priority 2020, dated 2024)
